Assay results reported in PubChem BioAssay AID1053140 (Broad Institute, 2014).
Calls of active or inactive are those of the source.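 How the source made its calls: active means cell killing, with AC50 under 10 µM and within twice the top valid dose; inactive means effect in the opposite direction, and the rest.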

Tested on: not listed separately
Experiment: A549 cell cytotoxicity, dose response, cytotoxicity control, ATP luminescence, dry powder, set 16 (AID 1053140)
Conditions: A549 viability, CellTiter-Glo ATP luminescence, 72 h; at 26 µM (top of the series)

SMILES	activity change, negative = cytotoxic
CCCC(=O)Nc1ccc2c(c1)OC[C@H](C)N(Cc1ccc(-c3ccccn3)cc1)C[C@H](C)[C@@H](OC)CN(C)C2=O	6.08% (inactive)
CCCNC(=O)Nc1ccc2c(c1)OC[C@H](C)N(Cc1ccc(-c3ccccn3)cc1)C[C@H](C)[C@@H](OC)CN(C)C2=O	-9.23% (inactive)
CCCC(=O)Nc1ccc2c(c1)OC[C@H](C)N(Cc1ccccc1)C[C@H](C)[C@@H](OC)CN(C)C2=O	-0.093% (inactive)
CO[C@H]1CN(C)C(=O)c2ccc(NC(=O)NC(C)C)cc2OC[C@H](C)N(Cc2ccccc2)C[C@@H]1C	4.59% (inactive)
CO[C@H]1CN(C)C(=O)c2ccc(NC(=O)NC(C)C)cc2OC[C@H](C)N(Cc2ccc(-c3ccccn3)cc2)C[C@@H]1C	3.22% (inactive)
CCCNC(=O)Nc1ccc2c(c1)OC[C@H](C)N(Cc1ccccc1)C[C@H](C)[C@@H](OC)CN(C)C2=O	0.334% (inactive)

Same assay, conditions: A549 viability, CellTiter-Glo ATP luminescence, 72 h; at 50 µM (top of the series)

SMILES	activity change, negative = cytotoxic
CO[C@H]1CN(C)C(=O)c2cc(NC(=O)NC(C)C)ccc2OC[C@H](C)NC[C@@H]1C	-2.18% (inactive)
CO[C@H]1CN(C)C(=O)c2cc(NC(=O)NC(C)C)ccc2OC[C@H](C)N(Cc2cncnc2)C[C@@H]1C	-6.71% (inactive)
CO[C@H]1CN(C)C(=O)c2cc(NC(=O)NC(C)C)ccc2OC[C@H](C)N(C(=O)c2ccc(-c3ccccn3)cc2)C[C@@H]1C	-11.3% (inactive)
CO[C@H]1CN(C)C(=O)c2cc(NC(=O)NC(C)C)ccc2OC[C@H](C)N(Cc2ccncc2)C[C@@H]1C	4.36% (inactive)
CO[C@H]1CN(C)C(=O)c2cc(NC(=O)NC(C)C)ccc2OC[C@H](C)N(C(=O)c2ccccc2)C[C@@H]1C	-11.4% (inactive)
CO[C@H]1CN(C)C(=O)c2cc(NC(=O)NC(C)C)ccc2OC[C@H](C)N(Cc2cccnc2)C[C@@H]1C	6.13% (inactive)
CO[C@H]1CN(C)C(=O)c2cc(NC(=O)NC(C)C)ccc2OC[C@H](C)N(Cc2ccc(F)cc2)C[C@@H]1C	-3.88% (inactive)

Tested on: A549 viability, CellTiter-Glo ATP luminescence, 72 h
Experiment: as above
Conditions: not given

SMILES	AC50
CO[C@H]1CN(C)C(=O)c2cc(NC(=O)NC(C)C)ccc2OC[C@H](C)N(C(=O)Nc2ccc(-c3ccccn3)cc2)C[C@@H]1C	> 100 µM (inactive)
CO[C@H]1CN(C)C(=O)c2cc(NC(=O)C(C)C)ccc2OC[C@H](C)N(Cc2ccc(-c3ccccn3)cc2)C[C@@H]1C	> 100 µM (inactive)
CO[C@H]1CN(C)C(=O)c2cc(NC(=O)NC(C)C)ccc2OC[C@H](C)N(Cc2ccc(-c3cccnc3)cc2)C[C@@H]1C	45.7 µM
CO[C@H]1CN(C)C(=O)c2cc(Nc3ncccn3)ccc2OC[C@H](C)N(Cc2ccc(-c3ccccn3)cc2)C[C@@H]1C	> 100 µM (inactive)
CO[C@H]1CN(C)C(=O)c2cc(NC(=O)NC(C)C)ccc2OC[C@H](C)N(Cc2ccc(-c3cncnc3)cc2)C[C@@H]1C	> 100 µM (inactive)
CO[C@H]1CN(C)C(=O)c2cc(Nc3c(NC4CCCC4)c(=O)c3=O)ccc2OC[C@H](C)N(Cc2ccc(-c3ccccn3)cc2)C[C@@H]1C	> 100 µM (inactive)
CCC(CC)Nc1c(Nc2ccc3c(c2)C(=O)N(C)C[C@H](OC)[C@@H](C)CN(Cc2ccc(-c4ccccn4)cc2)[C@@H](C)CO3)c(=O)c1=O	43.7 µM
CO[C@H]1CN(C)C(=O)c2cc(NC(=O)OC(C)C)ccc2OC[C@H](C)N(Cc2ccc(-c3ccccn3)cc2)C[C@@H]1C	> 100 µM (inactive)
CO[C@H]1CN(C)C(=O)c2cc(Nc3c(NC(C)C)c(=O)c3=O)ccc2OC[C@H](C)N(Cc2ccc(-c3ccccn3)cc2)C[C@@H]1C	45.3 µM
CO[C@H]1CN(C)C(=O)c2cc(NC(=O)NC(C)C)ccc2OC[C@H](C)N(Cc2ccccn2)C[C@@H]1C	> 100 µM (inactive)
CO[C@H]1CN(C)C(=O)c2cc(Nc3c(NC4CC4)c(=O)c3=O)ccc2OC[C@H](C)N(Cc2ccc(-c3ccccn3)cc2)C[C@@H]1C	25.2 µM
CO[C@H]1CN(C)C(=O)c2cc(Nc3c(NC4CCCCC4)c(=O)c3=O)ccc2OC[C@H](C)N(Cc2ccc(-c3ccccn3)cc2)C[C@@H]1C	36.8 µM
CO[C@H]1CN(C)C(=O)c2cc(N)ccc2OC[C@H](C)N(Cc2ccc(-c3ccccn3)cc2)C[C@@H]1C	> 100 µM (inactive)
